Tests used:
PSMA(+) PC3 PIP cells = test: Cell uptake, cell surface binding and internalization in PSMA(+) PC3 PIP cells; type: cell-based, human
PSMA(−) PC3 flu cells = test: Cell uptake in PSMA(−) PC3 flu cells; type: cell-based, human
PSMA+ PC3 PIP tumors = test: Radiopharmaceutical therapy in PC3 PIP flank tumor growth delay model; type: in vivo, NOD/SCID mice
Description: A pilot treatment study using NOD/SCID mice (n=10 per group) bearing PSMA+ PC3 PIP tumors with a single intravenous dose of 111 MBq (3 mCi) of agents ^177Lu-PSMA-617, ^177Lu-1, ^177Lu-3 and ^177Lu-5 and the control group (with saline treatment) were performed (Table 8). Volume of the all control group mice reached >5-fold of their initial tumor volume within 14 days. Mouse euthanized for treated group within 4 weeks of post-injection was mainly due to sudden body weight loss and not related to tumor growth. […] The difference among treatment groups was statistically significant (P=0.002) by the log-rank test compared to the untreated group. […] After 8-weeks, three mice from each treated group were used for detailed blood analysis and necropsy study. All animals underwent radiotherapy study had normal creatinine (0.3-0.4 mg/dL) and blood urea nitrogen levels. […] Additionally, a significant lowering of platelet for all three treated mice from ^177Lu-PSMA-617 compared control group and other treated groups.
Median survival for the ^177Lu-PSMA-617 was 133 days vs. 234 days for ^177Lu-1.
The remaining treated mice survived tumor-free for 10 months and were evaluated for toxicity.
Antitumor efficacy studies were performed in PC3 PIP flank tumor growth delay model to evaluate the therapeutic efficacy of a single dose intravenous injection of ^177Lu-L1, ^177Lu-L3, ^177Lu-L5 and ^177Lu-PSMA-617 vs. saline. This was a head-to-head comparison study and same batch of tumor-bearing mice and radioactivity. The study was commenced 14-18 days post-inoculation of the xenografts, when all the mice had tumor volume of about ˜60-85 mm^3 (Table 8). All the living mice were monitored for 8 weeks to monitor the growth delay. Mice body weight and tumor volume were monitored every 3 days throughout the experiment. Endpoint criteria defined by the institute ACUC was weight loss≥15%, a tumor volume>1800 mm^3, active ulceration of the tumor or abnormal behavior indicating pain or unease. After 8-weeks, three mice from each group were submitted for detail necropsy and blood analysis. Mice group treated with ^177Lu-1 and ^177Lu-PSMA-617 were continued to monitor until the endpoint. These definitions were also used for Kaplan-Meier analysis. The probability of reaching 5 times the initial tumor volume was characterized using Kaplan-Meier curves, and comparison was performed using the log-rank test. The formula used for calculation of tumor volume was V=width^2×length/2. Toxicity of the ^177Lu-treatment groups after 8-weeks and in healthy CD-1 (n=3) mice treated with 111 MBq was evaluated by pathologic examination at the Johns Hopkins Pathology Core facility with serum metabolic panel, blood counts, and full necropsy including detailed histopathology of kidneys, salivary glands and lacrimal glands.

[1] = Blood analysis and necropsy after radiotherapy; type: in vivo, NOD/SCID mice; settings: one-year post-treatment in tumor-free mice, 111 MBq
PSMA+ PC3 PIP cells = test: Clonogenic cell survival assay in PSMA+ PC3 PIP cells; type: cell-based, human
[2] = tested on: PSMA(+) PC3 PIP and PSMA(−) PC3 flu tumor xenografts; test: Biodistribution of 177Lu compounds (Example 5)
[3] = tested on: PSMA(+) tumors and normal tissues; test: Self-blocking (receptor blockade) biodistribution; type: in vivo, mouse; settings: at 10-fold kidney blockade
Description: Development of receptor blockade for normal organs. The blocking effect of 1 was quantified in normal tissues using ^177Lu-1. A drastic reduction of renal uptake was observed while maintaining high uptake in PSMA(+) tumors (FIG. 12). […] Blocking strategies. […] These daughters, once formed, are unlikely to associate with the chelate construct due to high atomic recoil-energy as a result of α-decay. Without wishing to be bound to any one particular theory, it is thought that acute salivary gland toxicity caused by ^225Ac-PSMA-617 is most likely due to PSMA-based internalization of the agent followed by daughter release in striated duct or acini. Both biodistribution data and α-camera imaging will be used to interpret the data. Different pharmacologic agents will be evaluated to avoid renal and salivary gland radio toxicity. […]

O=C([O-])CN1CCN(CC(=O)[O-])CCN(CC(=O)NCCCCC(=O)N(CCCC[C@H](NC(=O)N[C@@H](CCC(=O)O)C(=O)O)C(=O)O)Cc2ccc(Br)cc2)CCN(CC(=O)[O-])CC1.[177Lu+3] [^177Lu-L1]
Cell uptake PC3 PIP (PSMA(+) PC3 PIP cells; 1 h): 32.1 ± 0.1 % incubated dose per 1 x 10^6 cells
PC3 PIP cell Int (internalization) (PSMA(+) PC3 PIP cells; 1 h): 18.8 ± 0.8 % incubated dose per 1 x 10^6 cells
Blockade PC3 PIP (PSMA(+) PC3 PIP cells; 1 h, ZJ43 10 μM): 0.2 ± 0.0 % incubated dose per 1 x 10^6 cells
total uptake within the PSMA(+) PC3 PIP cells (PSMA(+) PC3 PIP cells; 1 h to 24 h): ~30 % of the incubated dose
Cell uptake PC3 PIP (PSMA(+) PC3 PIP cells; 2 h): 36.7 ± 0.5 % incubated dose per 1 x 10^6 cells
PC3 PIP, line without name (position of cell internalization) (PSMA(+) PC3 PIP cells; 2 h): 22.0 ± 0.6 % incubated dose per 1 x 10^6 cells
Cell uptake PC3 PIP (PSMA(+) PC3 PIP cells; 4 h): 39.1 ± 0.5 % incubated dose per 1 x 10^6 cells
PC3 PIP cell int (internalization) (PSMA(+) PC3 PIP cells; 4 h): 26.6 ± 1.2 % incubated dose per 1 x 10^6 cells
Cell uptake PC3 PIP (PSMA(+) PC3 PIP cells; 24 h): 46.2 ± 0.2 % incubated dose per 1 x 10^6 cells
PC3 PIP cell int (internalization) (PSMA(+) PC3 PIP cells; 24 h): 24.6 ± 0.2 % incubated dose per 1 x 10^6 cells
Cell uptake PC3 flu (PSMA(−) PC3 flu cells; 1 h): 0.2 ± 0.0 % incubated dose per 1 x 10^6 cells
Cell uptake PC3 flu (PSMA(−) PC3 flu cells; 2 h): 0.1 ± 0.0 % incubated dose per 1 x 10^6 cells
Cell uptake PC3 flu (PSMA(−) PC3 flu cells; 4 h): 0.1 ± 0.0 % incubated dose per 1 x 10^6 cells
Cell uptake PC3 flu (PSMA(−) PC3 flu cells; 24 h): 0.2 ± 0.1 % incubated dose per 1 x 10^6 cells
Median survival After 8 weeks post-treatment (PSMA+ PC3 PIP tumors; 111 MBq): Not reached
Mouse death (number of mice) (PSMA+ PC3 PIP tumors; 111 MBq, up to week 8 post-treatment): Death 1
Tumor disappear (number of mice) (PSMA+ PC3 PIP tumors; 111 MBq, week 8 post-treatment): disappear 7
Average final body weight (PSMA+ PC3 PIP tumors; single i.v. dose 111 MBq (3 mCi)): 26.1 ± 1.4 gram
radiation nephropathy at necropsy [1]: did not reveal any radiation nephropathy

O=C([O-])CN1CCN(CC(=O)[O-])CCN(CC(=O)O)C(Cc2ccc(NC(=S)NCCCCC(=O)N(CCCC[C@H](NC(=O)N[C@@H](CCC(=O)O)C(=O)O)C(=O)O)Cc3ccc(Br)cc3)cc2)CN(CC(=O)[O-])CC1.[177Lu+3] (stereo partly shown) [^177Lu-L8]
fold higher internalization compared to 177Lu-7 (PSMA(+) PC3 PIP cells; all time-points up to 24 h): > 1.5 fold
D0 (37% survival) (PSMA+ PC3 PIP cells; 48 h incubation): 0.3-0.6 μCi/mL
Cell surviving fraction (PSMA+ PC3 PIP cells; incubated for 2 h and 24 h): > 0.8
mice with tumor growth with relative volume>5 after 8 weeks (PSMA+ PC3 PIP tumors; 111 MBq, n=10): only two mice
tumor-free survival of remaining treated mice (PSMA+ PC3 PIP tumors; 111 MBq, n=10): 10 months
unexpected death of mice (used for SPECT/CT imaging) (PSMA+ PC3 PIP tumors; 111 MBq, n=10): three mice
PSMA(+) PC3 PIP tumor uptake ([2]; 2 h): 55.4±7.2 % ID/g
PSMA(+) PC3 PIP tumor uptake ([2]; 24 h post-injection): 40.6±7.0 % ID/g
PSMA(+) PC3 PIP tumor uptake ([2]; 48 h): 27.0±7.0 % ID/g
PSMA(+) PC3 PIP tumor uptake ([2]; fourth time point, time not given): 24.9±2.3 % ID/g

O=C([O-])CN1CCN(CC(=O)[O-])CCN(C(CCC(=O)NCCCCC(=O)N(CCCC[C@H](NC(=O)N[C@@H](CCC(=O)O)C(=O)O)C(=O)O)Cc2ccc(Br)cc2)C(=O)O)CCN(CC(=O)[O-])CC1.[177Lu+3] (stereo partly shown) [^177Lu-L9]
cell uptake and internalization (PSMA(+) PC3 PIP cells): ~70%
effect of self-blockade on tumor uptake [3]: significant tumor uptake blockade
Kidney uptake ([2]; 2 h): 149.7±32.0 % ID/g
Kidney uptake ([2]; 24 h (so in the source)): 5.9±2.7 % ID/g
fold renal clearance ([2]; within 24 h): ~30 fold

Source: US11478558B2, “Prostate-specific membrane antigen targeted high-affinity agents for endoradiotherapy of prostate cancer” (The Johns Hopkins University, priority 2017, dated 2022)
